According to patent publication US9326986B2, “Quinazolinone, quinolone and related analogs as sirtuin modulators” (GLAXOSMITHKLINE LLC, priority 2008, dated 2016):

Biological target: T1, SIRT1 (Homo sapiens, UniProt Q96EB6)
T1 sequence (Q96EB6 1-747): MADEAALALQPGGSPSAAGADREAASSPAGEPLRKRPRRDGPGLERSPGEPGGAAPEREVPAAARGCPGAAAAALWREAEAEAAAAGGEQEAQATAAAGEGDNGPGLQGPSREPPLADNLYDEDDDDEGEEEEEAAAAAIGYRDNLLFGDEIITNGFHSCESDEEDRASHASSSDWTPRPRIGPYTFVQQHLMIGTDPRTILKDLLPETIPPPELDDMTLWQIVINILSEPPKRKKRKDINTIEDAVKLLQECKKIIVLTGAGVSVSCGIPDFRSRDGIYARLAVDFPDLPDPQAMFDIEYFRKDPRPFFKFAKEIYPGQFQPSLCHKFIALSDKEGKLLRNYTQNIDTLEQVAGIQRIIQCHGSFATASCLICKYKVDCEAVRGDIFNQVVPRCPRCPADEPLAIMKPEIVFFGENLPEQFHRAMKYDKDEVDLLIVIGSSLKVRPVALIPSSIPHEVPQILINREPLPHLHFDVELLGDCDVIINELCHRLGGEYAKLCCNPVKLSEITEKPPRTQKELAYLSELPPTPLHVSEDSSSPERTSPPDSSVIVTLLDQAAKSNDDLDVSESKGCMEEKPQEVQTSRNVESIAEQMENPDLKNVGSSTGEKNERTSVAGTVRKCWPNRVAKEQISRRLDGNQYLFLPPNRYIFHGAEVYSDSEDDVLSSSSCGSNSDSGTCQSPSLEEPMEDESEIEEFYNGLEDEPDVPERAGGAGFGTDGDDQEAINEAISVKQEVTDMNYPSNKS
Assay: Mass spectrometry based assay to identify modulators of SIRT1 activity (deacetylation of p53-based acetylated peptide)
Assay type: biochemical
Settings: 10 nM SIRT1, 0.5 μM peptide substrate, 120 μM βNAD+, 25 minutes at 25° C.; for EC1.5 μM: SIRT1 activation

| SMILES | % Fold Act. (percent maximum fold activation) | EC1.5 μM |
| --- | --- | --- |
| O=C(Nc1ccccn1)c1cccc2c(=O)[nH]c(-c3cccc(OC(F)F)c3)nc12 [Compound 325] | B (Fold Activation<200%) | C (EC1.5>25 μM) |
| Cn1cc(C(=O)Nc2cccc3c(=O)n(C)c(-c4cccc(C(F)(F)F)c4)nc23)cn1 [Compound 268] | B (Fold Activation<200%) | C (EC1.5>25 μM) |
| Cn1c(-c2cccc(C(F)(F)F)c2)nc2c(C(=O)Nc3cncc(CN4CCOCC4)c3)cccc2c1=O [Compound 300] | A (Fold activation>200%) | B (EC1.5 1-25 μM) |
| Cn1c(-c2cccc(C(F)(F)F)c2)nc2c(C(=O)Nc3cccc(CN4CC[C@H](F)C4)n3)cccc2c1=O [Compound 352] | A (Fold activation>200%) | A (EC1.5<1.0 μM) |
| O=C(NC1CN2CCC1CC2)c1cccc2c(=O)cc(-c3cccc(C(F)(F)F)c3)[nH]c12 (centres unmarked) [Compound 414] | A (Fold activation>200%) | B (EC1.5 1-25 μM) |
| O=C(Nc1cccc2c(=O)cc(-c3cccc(C(F)(F)F)c3)[nH]c12)c1cccc(CN2CCOCC2)n1 [Compound 448] | A (Fold activation>200%) | A (EC1.5<1.0 μM) |
| Cc1nc(C)c(-c2nc3c(NC(=O)c4cnccn4)cccc3c(=O)n2C)s1 [Compound 287, N-(2-(2,4-dimethylthiazol-5-yl)-3-methyl-4-oxo-3,4-dihydroquinazolin-8-yl)pyrazine-2-carboxamide] | A (Fold activation>200%) | B (EC1.5 1-25 μM) |
| Cn1c(-c2cccc(C(F)(F)F)c2)nc2c(C(=O)Nc3ccnc(OCC(O)CO)n3)cccc2c1=O (centres unmarked) [Compound 355] | A (Fold activation>200%) | A (EC1.5<1.0 μM) |
| CCn1c(-c2cccc(C(F)(F)F)c2)nc2c(NC(=O)c3cnccn3)cccc2c1=O [Compound 232] | A (Fold activation>200%) | A (EC1.5<1.0 μM) |
| O=C(Nc1cccc2c(=O)cc(-c3ccccc3C(F)(F)F)[nH]c12)c1cnccn1 [Compound 445] | A (Fold activation>200%) | A (EC1.5<1.0 μM) |
| CCCn1c(-c2cccc(C(F)(F)F)c2)nc2c(NC(=O)c3cnccn3)cccc2c1=O [Compound 233] | A (Fold activation>200%) | A (EC1.5<1.0 μM) |
| Cn1c(-c2ccccc2)nc2c(C(=O)Nc3ccccn3)cccc2c1=O [Compound 210] | B (Fold Activation<200%) | B (EC1.5 1-25 μM) |
| O=C(Nc1cccc2c(=O)cc(-c3cccc(C(F)(F)F)c3)[nH]c12)c1ncccn1 [Compound 417] | A (Fold activation>200%) | A (EC1.5<1.0 μM) |
| Cn1c(-c2ncccn2)nc2c(C(=O)Nc3ccccn3)cccc2c1=O [Compound 259] | B (Fold Activation<200%) | C (EC1.5>25 μM) |
| O=C(Nc1cccc2c(=O)[nH]c(-c3ccccc3OC(F)F)nc12)c1cnccn1 [Compound 313] | A (Fold activation>200%) | A (EC1.5<1.0 μM) |
| O=C(Nc1nccs1)c1cccc2c(=O)cc(-c3cccc(Cl)c3)[nH]c12 [Compound 433] | A (Fold activation>200%) | A (EC1.5<1.0 μM) |
| Cn1c(-c2cccnc2)nc2c(C(=O)Nc3ccccn3)cccc2c1=O [Compound 256] | B (Fold Activation<200%) | C (EC1.5>25 μM) |
| Cn1cncc1C(=O)Nc1cccc2c(=O)n(C)c(-c3cccc(C(F)(F)F)c3)nc12 [Compound 236] | A (Fold activation>200%) | B (EC1.5 1-25 μM) |
| Cn1cncc1-c1nc2c(NC(=O)c3cnccn3)cccc2c(=O)n1C [Compound 285] | B (Fold Activation<200%) | B (EC1.5 1-25 μM) |
| CC(C)n1c(-c2cccc(C(F)(F)F)c2)nc2c(NC(=O)c3cnccn3)cccc2c1=O [Compound 267] | A (Fold activation>200%) | A (EC1.5<1.0 μM) |
| Cn1c(-c2ccncc2)nc2c(NC(=O)c3cnccn3)cccc2c1=O [Compound 279] | B (Fold Activation<200%) | C (EC1.5>25 μM) |
| Cn1c(-c2cccc(C(F)(F)F)c2)nc2c(C(=O)Nc3ccc(CN4CC[C@H](F)C4)cn3)cccc2c1=O [Compound 346] | A (Fold activation>200%) | A (EC1.5<1.0 μM) |
| Cn1cncc1-c1nc2c(C(=O)Nc3ccccn3)cccc2c(=O)n1C [Compound 262] | B (Fold Activation<200%) | C (EC1.5>25 μM) |
| Cn1c(-c2cccc(C(F)(F)F)c2)nc2c(NC(=O)c3ccncc3)cccc2c1=O [Compound 237] | B (Fold Activation<200%) | B (EC1.5 1-25 μM) |
| Cn1c(-c2cccc(C(F)(F)F)c2)nc2c(NC(=O)c3cccnc3)cccc2c1=O [Compound 240] | A (Fold activation>200%) | B (EC1.5 1-25 μM) |
| O=C(Nc1ccccn1)c1cccc2c(=O)[nH]c(-c3ccccc3C(F)F)nc12 [Compound 324] | A (Fold activation>200%) | A (EC1.5<1.0 μM) |

Now from value to compound:

| % Fold Act. (percent maximum fold activation) | EC1.5 μM | SMILES |
| --- | --- | --- |
| A (Fold activation>200%) | A (EC1.5<1.0 μM) | Cn1c(-c2cccc(C(F)(F)F)c2)nc2c(C(=O)Nc3cccc(OCC(O)CO)c3)cccc2c1=O (centres unmarked) [Compound 286] |
| B (Fold Activation<200%) | C (EC1.5>25 μM) | Cn1c(-c2ncccn2)nc2c(NC(=O)c3cnccn3)cccc2c1=O [Compound 282] |
| A (Fold activation>200%) | A (EC1.5<1.0 μM) | O=C(Nc1ccncc1)c1cccc2c(=O)cc(-c3cccc(C(F)(F)F)c3)[nH]c12 [Compound 402] |
| B (Fold Activation<200%) | C (EC1.5>25 μM) | Cn1cc(-c2nc3c(C(=O)Nc4ccccn4)cccc3c(=O)n2C)cn1 [Compound 263] |
| B (Fold Activation<200%) | B (EC1.5 1-25 μM) | O=C(Nc1ccccn1)c1cccc2c(=O)n(CCN3CCCC3)c(-c3cccc(C(F)(F)F)c3)nc12 [Compound 272] |
| A (Fold activation>200%) | A (EC1.5<1.0 μM) | O=C(Nc1nccs1)c1cccc2c(=O)cc(-c3ccccc3C(F)(F)F)[nH]c12 [Compound 427] |
| B (Fold Activation<200%) | C (EC1.5>25 μM) | O=C(Nc1cccc2c(=O)[nH]c(-c3cccc(OC(F)F)c3)nc12)c1cnccn1 [Compound 316] |
| A (Fold activation>200%) | B (EC1.5 1-25 μM) | Cn1c(-c2cccc(C(F)(F)F)c2)nc2c(C(=O)Nc3ccc(CN4CCOCC4)nc3)cccc2c1=O [Compound 301] |
| B (Fold Activation<200%) | C (EC1.5>25 μM) | Cn1nccc1-c1nc2c(NC(=O)c3cnccn3)cccc2c(=O)n1C [Compound 292] |
| B (Fold Activation<200%) | C (EC1.5>25 μM) | O=C(Nc1cccc2c(=O)[nH]c(-c3cccc(C(F)F)c3)nc12)c1cnccn1 [Compound 311] |
| A (Fold activation>200%) | B (EC1.5 1-25 μM) | Cn1c(-c2cccc(C(F)(F)F)c2)nc2c(C(=O)Nc3ccncc3)cccc2c1=O [Compound 266] |
| B (Fold Activation<200%) | B (EC1.5 1-25 μM) | Cn1c(-c2cccc(Cl)c2)nc2c(C(=O)Nc3cccnc3)cccc2c1=O [Compound 243] |
| A (Fold activation>200%) | A (EC1.5<1.0 μM) | Cn1c(-c2cccc(C(F)(F)F)c2)nc2c(C(=O)Nc3cccc(OC[C@@H](O)CO)n3)cccc2c1=O [Compound 356] |
| A (Fold activation>200%) | A (EC1.5<1.0 μM) | O=C(Nc1cnccn1)c1cccc2c(=O)cc(-c3cccc(OC(F)(F)F)c3)[nH]c12 [Compound 442] |
| A (Fold activation>200%) | B (EC1.5 1-25 μM) | Cn1c(-c2cccc(C(F)(F)F)c2)nc2c(NC(=O)c3cccc(CN4CCCC4)c3)cccc2c1=O [Compound 364] |
| A (Fold activation>200%) | A (EC1.5<1.0 μM) | O=C(Nc1cccc2c(=O)[nH]c(-c3ccccc3OC(F)(F)F)nc12)c1cnccn1 [Compound 318] |
| B (Fold Activation<200%) | B (EC1.5 1-25 μM) | Cn1c(-c2cccc(C(F)(F)F)c2)nc2c(NC(=O)c3cncs3)cccc2c1=O [Compound 229] |
